{"source": "a compilation of properties of binary mixtures (doi:10.1016/j.molliq.2022.121176)", "experiment": "xn = mol fraction of the nth substance listed", "details": "298 K, 101.3 kPa", "data": [{"compound": "II", "note": "+ CCCCCCCCCCCC[n+]1ccn(C)c1.[I-]", "values": [{"measurement": "electrical conductivity", "setting": "x2 = 0.25", "value": 1.39, "unit": "S/m"}]}, {"compound": "II", "note": "+ CCCCCC[n+]1ccn(C)c1.[I-]", "values": [{"measurement": "electrical conductivity", "setting": "x2 = 0.2", "value": 3.89, "unit": "S/m"}, {"measurement": "electrical conductivity", "setting": "x2 = 0.25", "value": 2.93, "unit": "S/m"}, {"measurement": "electrical conductivity", "setting": "x2 = 0.333", "value": 1.96, "unit": "S/m"}, {"measurement": "electrical conductivity", "setting": "x2 = 0.5", "value": 0.429, "unit": "S/m"}]}, {"compound": "II", "note": "+ CCCC[n+]1ccn(C)c1.[I-]", "values": [{"measurement": "electrical conductivity", "setting": "x2 = 0.2", "value": 5.13, "unit": "S/m"}, {"measurement": "electrical conductivity", "setting": "x2 = 0.25", "value": 4.31, "unit": "S/m"}, {"measurement": "electrical conductivity", "setting": "x2 = 0.5", "value": 0.735, "unit": "S/m"}]}, {"compound": "CCCCCC[n+]1ccn(C)c1.[I-]", "note": "+ II", "values": [{"measurement": "electrical conductivity", "setting": "x1 = 1", "value": 0.0186, "unit": "S/m"}]}, {"compound": "CCCC[n+]1ccn(C)c1.[I-]", "note": "+ II", "values": [{"measurement": "electrical conductivity", "setting": "x1 = 1", "value": 0.035, "unit": "S/m"}]}, {"compound": "CC[n+]1ccn(C)c1.[I-]", "note": "+ II", "values": [{"measurement": "electrical conductivity", "setting": "x1 = 0.2", "value": 7.17, "unit": "S/m"}, {"measurement": "electrical conductivity", "setting": "x1 = 0.25", "value": 6.5, "unit": "S/m"}, {"measurement": "viscosity", "setting": "x1 = 0.25", "value": 18.8, "unit": "mPa·s"}, {"measurement": "electrical conductivity", "setting": "x1 = 0.333", "value": 5.08, "unit": "S/m"}]}, {"compound": "C=CCn1cc[n+](C)c1.[I-]", "note": "+ II", "values": [{"measurement": "electrical conductivity", "setting": "x1 = 0.2", "value": 4.07, "unit": "S/m"}, {"measurement": "electrical conductivity", "setting": "x1 = 0.333", "value": 3.82, "unit": "S/m"}]}]}
